Source: US6841533B1, “Conformationally constrained backbone cyclized interleukin-6 antagonists” (Peptor Limited, priority 1995, dated 2005)
One block for each molecule: values may come before it. Numbered stars: 1 amine (or outer) side, 2 acyl side, 3 side chain; on linkers, the order of the positions; unused ones are H or OH. Bridge positions count the residues as written; N and C are the ends. Square brackets hold non-standard residues; d marks the D form. Peptide text beside a SMILES is read from it. ξ: configuration not given here. Ala(Nα-(CH2)3CO) = C[C@@H](C(=O)[*:2])N(CCCC(=O)[*:3])[*:1]; Ala(Nα-(CH2)3NH) = C[C@@H](C(=O)[*:2])N(CCCN[*:3])[*:1]; Gly(Nα-(CH2)3CO) = O=C(CN(CCCC(=O)[*:3])[*:1])[*:2]; N(2-Aminoethyl)Gly = O=C(CN(CCN[*:3])[*:1])[*:2]; ξY = NC(Cc1ccc(O)cc1)C(=O)O

Tests used:
[1] = tested on: TF1 cells maintained with IL-6; assay: Bioassay using TF1 cells maintained with IL-6; type: cell-based, human; design: TF1: unit not given here; settings: for TF1: MPS crude peptides, Table 6
Source text: TF1 cells (human erythroleukemia) cells require IL-6 for growth and thus inhibition of IL-6 bioactivity results in cell death, similar to T1165 cells. The origin of all relevant molecules is human.
The problem associated with toxicity (false positive results), could be overcome in the TF1 based assay since these cells can be induced by additional cytokines which are unrelated to IL-6 (not using the gp130 signal transducer). It, is possible to induce the cells to grow with IL-6 and with additional cytokine e.g. GM-CSF. Specific inhibition of IL-6 bioactivity is therefore expected to register only in cells induced by IL-6 and not with GM-CSF. […] Assay procedure is based on the procedure described in Fourcin et al. (ibid). The amount of viable cells at the end of the assay is determined by staining the cells with WST reagent as well as by measuring thymidine corporation (^3H-T).
The libraries were screened for binding of soluble IL-6. The information obtained was used for synthesis of backbone cyclic peptides in MPS format. Analyses for biological activity were performed on the TF1 human cell line.
Since the endpoint of the bioassay used is cell death, there is a need to check the specificity of the killing action, and to examine whether the cell death is due to inhibition of the IL-6 signaling pathway. The peptide analogs were therefore analyzed for their ability to induce non-specific cell death when the same cells were maintained with GM-CSF (instead of IL-6) as growth factor.

B16.F10.9 melanoma cells = settings: for B16F10.9 active at: theoretical crude concentration, MPS peptides; for concentration that fully blocks IL-6 activity: 200 ng/ml IL-6 and 125 ng/ml sIL-6R, three days, FIG. 2
Source text: The F10.9 sub-line of B16 (murine melanoma) expresses gp130 but not IL-6R. Addition of human IL-6 and human IL-6R, or a chimera of IL-6/IL-6R results in differentiation which is associated with growth arrest of the cells. Inhibition of IL-6 results in continued growth. Since the end point of this assay is cell growth rather than cell death, this assay system was used primarily in order to differentiate between suspected toxic effects observed on B9 or T1165 cells, and true inhibition of IL-6 activity.
Evaluation of the results in this assay is possible using two methods. One method uses vital dyes for monitoring cell growth. The second method comprises visual observation of the cell morphology and establishing a cut off point based on the following observations:
Cells which are not treated with IL-6 create a monolayer that covers almost all the surface area. Treatment with IL-6 causes growth arrest and a morphological change: the cells become very narrow and elongated as compared to the more spread out shape of the non-treated cells.
Peptides were added to B16.F10.9 melanoma cells in the presence of 200 ng/ml IL-6 and 125 ng/ml sIL-6R. Incubation for three days.

A375 cells = assay: Bioassay using A375 cells, cytokines other than IL-6; type: cell-based, human; settings: maximal inhibitory activity of IL-6 on A375 cells = 100%
Source text: The A375 are human melanoma cells. IL-6 induces differentiation of A375 cells which is associated with growth arrest similar to the phenomenon observed with the B16F10.9 murine melanoma cells. Thus, inhibition of IL-6 results in continued growth of the cells which is easily quantifiable. In such case toxicity of peptides would register as a false negative rather than false positive. This conditions is preferable during screening process. Second, since these are human cells, the molecules involved in the bio-response, i.e. IL-6, IL-6R and gp130 are all of human origin thus ensuring authenticity of the tested peptide bioactivity. Another advantage of the A375 cells is their ability to be induced by other cytokines that share the gp130 signal transducer, i.e. leukemia inhibitory factor (LIF) and oncostatine M (OSM). […] The availability of this assay system, allows us to test, the specificity of our IL-6 inhibitory peptides vs. other cytokines of the family, in an array of assays all using a single cell line. Assay performance is described in Savino et al. (ibid).

[2] = tested on: IL-6 mediated acute-phase response; assay: IL-6 mediated acute-phase response (turpentine model); type: in vivo, mice; settings: mice, turpentine, 1 or 10 mg/kg of peptide
Source text: The objective was to establish a simple first-line in-vivo model, for testing the activity of IL-6 inhibitors. The turpentine model was chosen based on the principal role that IL-6 plays in this inflammatory response.
Systemic and localized inflammation elicit a general reaction in the organism, known as the acute phase response, which includes fever, loss of body weight, hypoglycemia, and changes in the serum levels of several plasma proteins produced by the liver. IL-6 is an important mediator of the acute-phase reaction (see Heinrich et.al., Biochemistry J. 1 265:621, 1990 for a comprehensive review), together with IL-1 and TNF-α. It has been shown previously that sterile tissue damage caused by injection of turpentine induces an acute-phase reaction, and that IL-6 is an essential mediator of this response (Rokita et.al., Cytokine 5:454, 1993).
IL-6 knock-out (-/-) and matched wild-type (C57/Black; CB) mice were used. Sterile tissue damage was induced by subcutaneous injection of turpentine, 0.1 ml, into both hind limbs. IL-6 was determined in the serum by ELISA (QuantikineM, R&D). For liver acute-phase proteins, Fibrinogen was determined in citrated plasma, by the calcium method.
PTR 5045 (SEQ ID NO:75) was tested in this model in compare to the non-relevant control peptide PTR 4041 (SEQ ID NO:33) (Lys-GlyC2-Leu-Ile-Gln-Leu-Phe-GlyN3-Lys-Lys-NH2).

[3] = target: leukocyte inhibitory factor receptor (LIF-R); assay: cell-based or functional assay

Molecule: C[C@@H](C(N)=O)N1CCCNC(=O)CCCN(C(=O)[C@@H](Cc2ccccc2)NC(=O)[C@H](CCCNC(=N)N)NC(=O)[C@H](CCCCN)NC(=O)[C@H](CCCNC(=N)N)NC(=O)[C@H](N)CCCCN)[C@@H](C)C(=O)N[C@@H](CCCCN)C(=O)N[C@@H](CCCNC(=N)N)C(=O)N[C@@H](Cc2ccc(O)cc2)C1=O [(D)Lys-Arg-Lys-Arg-(D)Phe-AlaC3-Lys-Arg-Tyr-AlaN3] (H-[dK]RKR[dF][Ala(Nα-(CH2)3CO)]KRY[Ala(Nα-(CH2)3NH)]-NH2; lactam 6-10)
- TF1 [1]: 55
- B16F10.9 active at (B16.F10.9 melanoma cells): 62 µM

Molecule: CC(C)C[C@@H]1NC(=O)[C@H](C)N(C(=O)[C@H](Cc2ccccc2)NC(=O)[C@@H](CCCNC(=N)N)NC(=O)[C@H](CCCCN)NC(=O)[C@H](CCCNC(=N)N)NC(=O)[C@@H](N)CCCCN)CCCC(=O)NCCCN([C@@H](C)C(N)=O)C(=O)C(Cc2ccc(O)cc2)NC(=O)[C@H](CCCNC(=N)N)NC1=O (stereo partly drawn) [Lys-Arg-Lys-(D)Arg-Phe-AlaC3-Leu-Arg-BTyr-AlaN3] (H-KRK[dR]F[Ala(Nα-(CH2)3CO)]LR[ξY][Ala(Nα-(CH2)3NH)]-NH2; lactam 6-10)
- TF1 [1]: 85
- B16F10.9 active at (B16.F10.9 melanoma cells): <12 µM

Molecule: C[C@@H](C(N)=O)N1CCCNC(=O)CCCN(C(=O)[C@H](Cc2ccccc2)NC(=O)[C@H](CCCNC(=N)N)NC(=O)[C@H](CCCCN)NC(=O)[C@H](CCCNC(=N)N)NC(=O)[C@@H](N)CCCCN)[C@@H](C)C(=O)N[C@@H](CCCCN)C(=O)N[C@H](CCCNC(=N)N)C(=O)NC(Cc2ccc(O)cc2)C1=O (stereo partly drawn) [Lys-Arg-Lys-Arg-Phe-AlaC3-Lys-(D)Arg-BTyr-AlaN3] (H-KRKRF[Ala(Nα-(CH2)3CO)]K[dR][ξY][Ala(Nα-(CH2)3NH)]-NH2; lactam 6-10)
- TF1 [1]: 21
- B16F10.9 active at (B16.F10.9 melanoma cells): 62 µM

- IC50 in the B16F10.9 cell assay (B16.F10.9 melanoma cells): around 10 μ/ml
Molecule: CC(C)C[C@@H]1NC(=O)CN(C(=O)[C@H](Cc2ccccc2)NC(=O)[C@H](CCCNC(=N)N)NC(=O)[C@H](CC(C)C)NC(=O)[C@H](CCCNC(=N)N)NC(=O)[C@@H](N)Cc2ccc(O)cc2)CCCC(=O)NCCN(CC(N)=O)C(=O)[C@H](Cc2ccc(O)cc2)NC(=O)[C@H](CCCNC(=N)N)NC1=O [PTR 5005, Tyr-Arg-Leu-Arg-Phe-GlyC3-Leu-Arg-Tyr-GlyN2] (H-YRLRF[Gly(Nα-(CH2)3CO)]LRY[N(2-Aminoethyl)Gly]-NH2; lactam 6-10)
- activity on TF1 cells ([1]; in words): appears to be active

Molecule: CC(C)C[C@@H](NC(=O)[C@H](CCCNC(=N)N)NC(=O)[C@H](N)CCCCN)C(=O)N[C@H](CCCNC(=N)N)C(=O)N[C@H](Cc1ccccc1)C(=O)N1CCCC(=O)NCCCN([C@@H](C)C(N)=O)C(=O)[C@@H](Cc2ccc(O)cc2)NC(=O)[C@H](CCCNC(=N)N)NC(=O)[C@@H](CC(C)C)NC(=O)[C@@H]1C [PTR 5041, (D)Lys-Arg-(D) Leu-(D) Arg-(D)Phe-AlaC3-(D)Leu-Arg-(D)Tyr-AlaN3-NH2] (H-[dK]R[dL][dR][dF][Ala(Nα-(CH2)3CO)][dL]R[dY][Ala(Nα-(CH2)3NH)]-NH2; lactam 6-10)
- TF1 [1]: 92
- concentration that fully blocks IL-6 activity (B16.F10.9 melanoma cells): about 250 nM
- B16F10.9 active at (B16.F10.9 melanoma cells): 47 µM

Molecule: CC(C)C[C@@H]1NC(=O)[C@H](C)N(C(=O)[C@@H](Cc2ccccc2)NC(=O)[C@@H](CCCNC(=N)N)NC(=O)[C@H](CCCCN)NC(=O)[C@H](CCCNC(=N)N)NC(=O)[C@@H](N)Cc2c[nH]c3ccccc23)CCCC(=O)NCCCN([C@@H](C)C(N)=O)C(=O)C(Cc2ccc(O)cc2)NC(=O)[C@H](CCCNC(=N)N)NC1=O (stereo partly drawn) [Trp-Arg-Lys-(D)Arg-(D)Phe-AlaC3-Leu-Arg-BTyr-AlaN3] (H-WRK[dR][dF][Ala(Nα-(CH2)3CO)]LR[ξY][Ala(Nα-(CH2)3NH)]-NH2; lactam 6-10)
- TF1 [1]: 41
- B16F10.9 active at (B16.F10.9 melanoma cells): <12 µM

Molecule: CC(C)C[C@@H]1NC(=O)[C@H](C)N(C(=O)[C@H](Cc2ccccc2)NC(=O)[C@@H](CCCNC(=N)N)NC(=O)[C@H](CCCCN)NC(=O)[C@H](CCCNC(=N)N)NC(=O)[C@@H](N)Cc2c[nH]c3ccccc23)CCCC(=O)NCCCN([C@@H](C)C(N)=O)C(=O)C(Cc2ccc(O)cc2)NC(=O)[C@H](CCCNC(=N)N)NC1=O (stereo partly drawn) [Trp-Arg-Lys-(D)Arg-Phe-AlaC3-Leu-Arg-BTyr-AlaN3] (H-WRK[dR]F[Ala(Nα-(CH2)3CO)]LR[ξY][Ala(Nα-(CH2)3NH)]-NH2; lactam 6-10; C-terminus assumed)
- TF1 [1]: 32
- B16F10.9 active at (B16.F10.9 melanoma cells): <12 µM

Molecule: CC(C)C[C@@H]1NC(=O)[C@H](C)N(C(=O)[C@@H](Cc2ccccc2)NC(=O)[C@@H](CCCNC(=N)N)NC(=O)[C@H](CCCCN)NC(=O)[C@H](CCCNC(=N)N)NC(=O)[C@@H](N)Cc2ccc(O)cc2)CCCC(=O)NCCCN([C@@H](C)C(N)=O)C(=O)C(Cc2ccc(O)cc2)NC(=O)[C@@H](CCCNC(=N)N)NC1=O (stereo partly drawn) [Tyr-Arg-Lys-(D)Arg-(D)Phe-AlaC3-Leu-(D)Arg-BTyr-AlaN3] (H-YRK[dR][dF][Ala(Nα-(CH2)3CO)]L[dR][ξY][Ala(Nα-(CH2)3NH)]-NH2; lactam 6-10)
- TF1 [1]: 19
- B16F10.9 active at (B16.F10.9 melanoma cells): 47 µM

Molecule: (D)Lys-Arg-Lys-Arg-Phe-AlaC3-(D)Leu-(D)Arg-Tyr-AlaN3
- TF1 [1]: 27
- B16F10.9 active at (B16.F10.9 melanoma cells): not active

Molecule: (D)Lys-Arg-Lys-Arg-Phe-AlaC3-Leu-(D)Arg-(D)Tyr-AlaN3
- TF1 [1]: 19
- B16F10.9 active at (B16.F10.9 melanoma cells): not active

Molecule: (D)Lys-Arg-Lys-Arg-Phe-AlaC3-Leu-Arg-(D)Tyr-AlaN3
- TF1 [1]: 25
- B16F10.9 active at (B16.F10.9 melanoma cells): not active

Molecule: (D)Lys-Arg-Lys-Arg-Phe-AlaC3-Lys-Arg-(D)Tyr-AlaN3
- TF1 [1]: 21
- B16F10.9 active at (B16.F10.9 melanoma cells): not active

Molecule: (D)Tyr-Arg-Lys-Arg-Phe-AlaC3-Lys-(D)Arg-(D)Tyr-AlaN3
- TF1 [1]: 22
- B16F10.9 active at (B16.F10.9 melanoma cells): not active

Molecule: LIF: leukemia inhibitory factor, cytokine that shares the gp130 signal transducer
- % Inhibition (relative to IL-6) (A375 cells; cytokine 1 ng/ml): 1%
- % Inhibition (relative to IL-6) (A375 cells; cytokine 10 ng/ml): 2%

Molecule: Lys-Arg-Leu-(D)Arg-(D)Phe-AlaC3-Lys-Arg-BTyr-AlaN3
- TF1 [1]: 22
- B16F10.9 active at (B16.F10.9 melanoma cells): not active

Molecule: Lys-GlyC2-Leu-Ile-Gln-Leu-Phe-GlyN3-Lys-Lys-NH2 (KGLIQLFGKK; not fully specified; backbone cyclization, C-amide; listed as Homo sapiens) [PTR 4041, reference compound]
- Mean weight loss % [2]: −7.3%
- Mean weight loss grams [2]: −2.51 grams
- concentration that fully blocks IL-6 activity (B16.F10.9 melanoma cells): not active

- % Inhibition (relative to IL-6) of A375 cells, LIF + LIFR at 10 ng/ml [3]: 45%
Molecule: leukemia inhibitory factor (LIF) (ligand)

B1: OSM: oncostatine M, cytokine that shares the gp130 signal transducer (protein, UniProt P13725 26-221, looked up)
Oncostatin-M: AAIGSCSKEYRVLLGQLQKQTDLMQDTSRLLDPYIRIQGLDVPKLREHCRERPGAFPSEETLRGLGRRGFLQTLNATLGCVLHRLADLEQRLPKAQDLERSGLNIEDLEKLQMARPNILGLRNNIYCMAQLLDNSDTAEPTKAGRGASQPPTPTPASDAFQRKLEGCRFLHGYHRFMHSVGRVFSKWGESPNRSRR
- % Inhibition (relative to IL-6) (A375 cells; cytokine 1 ng/ml): 94%
- % Inhibition (relative to IL-6) (A375 cells; cytokine 10 ng/ml): 141%
